Read-outs that look alike come from different tables or passages of the source.
System: THP-1 cells
Assay: TNFα generation assay
Type: cell-based, human
Conditions: Homo sapiens
Procedure: THP-1 cells (2×10^5 cells/ml), which were human monocytoid cells, were cultured in the presence of 10 ng/ml IFN-γ (Roche) for 2 days, so that the cells were induced to differentiate into macrophage-like cells. The differentiation-induced THP-1 cells were recovered, and the cells (1×10^6 cell/ml) were then allowed to react with a predetermined concentration of test compound at room temperature for 30 minutes. On the other hand, 100 μl of human IgG (10 μg/ml, SIGMA-ALDRICH) diluted with PBS was added to a 96-well plate, and it was then incubated at room temperature overnight. Thereafter, the resultant was washed with PBS twice to produce a human IgG-coated plate. Subsequently, a cell solution that contained a compound was inoculated on the human IgG-coated plate (5×10^4 cells/well), and it was then cultured for 7 hours. Thereafter, the cultured solution was recovered, and the amount of TNFα secreted into the culture solution was then measured by the ELISA method (Roche/R & D Systems) or the AlphaLISA method (PerkinElmer).

[1] = THP-1, 7 h, IFN-γ-differentiated THP-1 cells on human IgG-coated plate, cultured 7 hours, read-out: TNFα generation inhibitory activity (IC50)

| IC50 [1] | IC50 (THP-1, THP-1 cells, Table 22, read-out: IC50 in TNFα generation assay) | SMILES |
| --- | --- | --- |
| ≤ 200 nM | – | NC(=O)c1cc(F)c(N[C@@H]2CCCC[C@@H]2N)nc1Nc1ccnc2c1ccn2CCN1CCCC1 (relative stereo) [Example 4-23, 6-(cis-2-aminocyclohexylamino)-5-fluoro-2-((1-(2-(pyrrolidin-1-yl)ethyl)-1H-pyrrolo[2,3-b]pyridin-4-yl)amino)nicotinamide] |
| ≤ 200 nM | – | NC(=O)c1cc(F)c(N[C@@H]2CCCC[C@@H]2N)nc1Nc1ccnc2c1ccn2CCN1CCOCC1 (relative stereo) [Example 4-25, 6-(cis-2-aminocyclohexylamino)-5-fluoro-2-((1-(2-(morpholin-4-yl)ethyl)-1H-pyrrolo[2,3-b]pyridin-4-yl)amino)nicotinamide] |
| ≤ 200 nM | – | NC(=O)c1cc(F)c(N[C@@H]2CCCC[C@@H]2N)nc1Nc1cnc2ncsc2c1 (relative stereo) [Example 4-26, 6-(cis-2-aminocyclohexylamino)-5-fluoro-2-(([1,3]thiazolo[4,5-b]pyridin-6-yl)amino)nicotinamide] |
| ≤ 200 nM | – | CCN(CC)CCn1ccc2c(Nc3nc(N[C@@H]4CCCC[C@@H]4N)c(F)cc3C(N)=O)ccnc21 (relative stereo) [Example 4-28, 6-(cis-2-aminocyclohexylamino)-2-((1-(2-(diethylamino)ethyl)-1H-pyrrolo[2,3-b]pyridin-4-yl)amino)-5-fluoronicotinamide] |
| ≤ 200 nM | – | NC(=O)c1cc(F)c(N[C@@H]2CCCC[C@@H]2N)nc1Nc1ccnc2c1ccn2CC1CC1 (relative stereo) [Example 4-40, 6-(cis-2-aminocyclohexylamino)-2-((1-(cyclopropylmethyl)-1H-pyrrolo[2,3-b]pyridin-4-yl)amino)-5-fluoronicotinamide] |
| ≤ 200 nM | – | NC(=O)c1cc(F)c(N[C@@H]2CCCC[C@@H]2N)nc1Nc1cncc(-n2nccn2)c1 (relative stereo) [Example 4-42, 6-(cis-2-aminocyclohexylamino)-5-fluoro-2-((5-(2H-1,2,3-triazol-2-yl)pyridin-3-yl)amino)nicotinamide] |
| ≤ 200 nM | – | NC(=O)Nc1cccc2cc(Nc3nc(N[C@@H]4CCCC[C@@H]4N)c(F)cc3C(N)=O)cnc12 (relative stereo) [Example 4-64, 2-((8-(aminocarbonyl)amino-quinolin-3-yl)amino)-6-(cis-2-amino-cyclohexylamino)-5-fluoronicotinamide] |
| ≤ 200 nM | – | NC(=O)c1cc(F)c(N[C@@H]2CCCC[C@@H]2N)nc1Nc1ccc2nsnc2c1 (relative stereo) [Example 6-34, 6-(cis-2-aminocyclohexylamino)-2-((benzo[c][1,2,5]thiadiazol-5-yl)amino)-5-fluoronicotinamide] |
| ≤ 200 nM | – | NC(=O)c1cc(F)c(N[C@@H]2CCCC[C@@H]2N)nc1Nc1ccc2ncsc2c1 (relative stereo) [Example 6-35, 6-(cis-2-aminocyclohexylamino)-2-((benzo[d]thiazol-6-yl)amino)-5-fluoronicotinamide] |
| ≤ 200 nM | – | Cn1ncc2ccc(Nc3nc(N[C@@H]4CCCC[C@@H]4N)c(F)cc3C(N)=O)cc21 (relative stereo) [Example 6-40, 6-(cis-2-aminocyclohexylamino)-5-fluoro-2-((1-methyl-1H-indazol-6-yl)amino)nicotinamide] |
| – | 130 to 200 nM | Cc1nc2ccc(Nc3nc(N[C@@H]4CCCC[C@@H]4N)c(F)cc3C(N)=O)cc2o1 (relative stereo) [Example 006-043, 6-(cis-2-aminocyclohexylamino)-5-fluoro-2-((2-methylbenzo[d]oxazol-6-yl)amino)nicotinamide] |
| ≤ 200 nM | – | Cc1nc2ccc(Nc3nc(N[C@@H]4CCCC[C@@H]4N)c(F)cc3C(N)=O)cc2o1 (relative stereo) [Example 6-43, 6-(cis-2-aminocyclohexylamino)-5-fluoro-2-((2-methylbenzo[d]oxazol-6-yl)amino)nicotinamide] |
| ≤ 200 nM | – | Cc1nc2cc(Nc3nc(N[C@@H]4CCCC[C@@H]4N)c(F)cc3C(N)=O)ccc2o1 (relative stereo) [Example 6-46, 6-(cis-2-aminocyclohexylamino)-5-fluoro-2-((2-methylbenzo[d]oxazol-5-yl)amino)nicotinamide] |
| ≤ 200 nM | – | Cn1cnc2cc(Nc3nc(N[C@@H]4CCCC[C@@H]4N)c(F)cc3C(N)=O)ccc21 (relative stereo) [Example 6-65, 6-(cis-2-aminocyclohexylamino)-5-fluoro-2-((1-methyl-1H-benzo[d]imidazol-5-yl)amino)nicotinamide] |
| ≤ 200 nM | – | Cc1ccc2cc(Nc3nc(N[C@@H]4CCCC[C@@H]4N)c(F)cc3C(N)=O)ccc2n1 (relative stereo) [Example 6-70, 6-(cis-2-aminocyclohexylamino)-5-fluoro-2-((2-methylquinolin-6-yl)amino)nicotinamide] |
| ≤ 200 nM | – | NC(=O)c1cc(F)c(N[C@@H]2CCCC[C@@H]2N)nc1Nc1ccc2cccnc2c1 (relative stereo) [Example 6-72, 6-(cis-2-aminocyclohexylamino)-5-fluoro-2-(quinolin-7-ylamino)nicotinamide] |
| ≤ 200 nM | – | Cn1ncc2c(Nc3nc(N[C@@H]4CCCC[C@@H]4N)c(F)cc3C(N)=O)cccc21 (relative stereo) [Example 6-75, 6-(cis-2-aminocyclohexylamino)-5-fluoro-2-((1-methyl-1H-indazol-4-yl)amino)nicotinamide] |
| ≤ 200 nM | – | Cc1cnc2cc(Nc3nc(N[C@@H]4CCCC[C@@H]4N)c(F)cc3C(N)=O)ccc2n1 (relative stereo) [Example 6-76, 6-(cis-2-aminocyclohexylamino)-5-fluoro-2-((2-methylquinoxalin-6-yl)amino)nicotinamide] |
| ≤ 200 nM | – | NC(=O)c1cc(F)c(N[C@@H]2CCCC[C@@H]2N)nc1Nc1ccc2c(cnn2CCN2CCCC2)c1 (relative stereo) [Example 6-82, 6-(cis-2-aminocyclohexylamino)-5-fluoro-2-((1-(2-(pyrrolidin-1-yl)ethyl)-1H-indazol-5-yl)amino)nicotinamide] |
| ≤ 200 nM | – | NC(=O)c1cc(F)c(N[C@@H]2CCCC[C@@H]2N)nc1Nc1ccc2nn(CCN3CCCC3)cc2c1 (relative stereo) [Example 6-83, 6-(cis-2-aminocyclohexylamino)-5-fluoro-2-((2-(2-(pyrrolidin-1-yl)ethyl)-2H-indazol-5-yl)amino)nicotinamide] |
| ≤ 200 nM | – | NC(=O)c1cc(F)c(N[C@@H]2CCCC[C@@H]2N)nc1Nc1ccc2[nH]ncc2c1 (relative stereo) [Example 6-87, 6-(cis-2-aminocyclohexylamino)-5-fluoro-2-((1H-indazol-5-yl)amino)nicotinamide] |
| ≤ 200 nM | – | NC(=O)c1cc(F)c(N[C@@H]2CCCC[C@@H]2N)nc1Nc1ccc2ncccc2c1 (relative stereo) [Example 8-6, 6-(cis-2-aminocyclohexylamino)-5-fluoro-2-(quinolin-6-ylamino)-nicotinamide] |
| ≤ 200 nM | – | NC(=O)c1cc(F)c(N[C@@H]2CCCC[C@@H]2N)nc1Nc1cccc(Cl)c1 (relative stereo) [Example 8-8, 6-(cis-2-aminocyclohexylamino)-2-((3-chlorophenyl)amino)-5-fluoro-nicotinamide] |
| ≤ 200 nM | – | Cc1cncc(Nc2nc(N[C@@H]3CCCC[C@@H]3N)c(Br)cc2C(N)=O)c1 (relative stereo) [Example 35-7, 6-(cis-2-aminocyclohexylamino)-5-bromo-2-((5-methylpyridin-3-yl)amino)nicotinamide] |
